Activity calls are given as the source filed them. The calls are words filed in the database; no cut-off is given here.
What was measured:
[1] = test system: NCI-H446; assay: Induction of DNA damage in human NCI-H446 cells assessed as increase in DNA fragments at 8 uM incubated for 48 hrs by comet assay; assay type: functional, cell-based
[2] = test system: PC-9; assay: Antiproliferative activity against human PC-9 cells assessed as inhibition of cell growth incubated for 96 hrs by MTT based ELISA; assay type: functional; conditions: PC-9, 96 h
[3] = Toxicity in Kunming mouse assessed as change in organ coefficient of kidney at 100 mg/kg,po administration for 2 weeks; assay type: organism-based; conditions: in vivo, 336 h
[4] = Toxicity in Kunming mouse assessed as change in serum blood urea nitrogen level at 100 mg/kg,po administration for 2 weeks; assay type: organism-based; conditions: in vivo, 336 h
[5] = test system: NCI-H446; assay: Induction of cell cycle arrest in human NCI-H446 cells assessed as accumulation of cells at G2/M phase at 2 uM incubated for 48 hrs by propidium iodide/RNase A staining based flow cytometry relative to control; assay type: functional
[6] = Toxicity in Kunming mouse assessed as change in serum creatinine level at 100 mg/kg,po administration for 2 weeks; assay type: organism-based; conditions: in vivo, 336 h
[7] = test system: NCI-H446; assay: Inhibition of colony formation in human NCI-H446 cells at 2 uM incubated for 24 hrs by crystal violet staining based analysis relative to control; assay type: functional
[8] = Toxicity in Kunming mouse assessed as morphological change in liver at 100 mg/kg,po administration for 2 weeks; assay type: organism-based; conditions: in vivo, 336 h
[9] = MRT (0 to t) in ICR mouse at 10 mg/kg,po measured upto 24 hrs by LC-MS/MS analysis; assay type: ADME, organism-based; conditions: in vivo
[10] = Antiproliferative activity against human BEAS-2B cells assessed as inhibition of cell growth incubated for 96 hrs by MTT based ELISA; assay type: toxicity
[11] = MRT (0 to infinity) in ICR mouse at 10 mg/kg,po measured upto 24 hrs by LC-MS/MS analysis; assay type: ADME, organism-based; conditions: in vivo
[12] = test system: A549; assay: Antiproliferative activity against human A549 cells assessed as inhibition of cell growth incubated for 96 hrs by MTT based ELISA; assay type: functional; conditions: A549, 96 h
[13] = test system: NCI-H1975; assay: Antiproliferative activity against human NCI-H1975 cells assessed as inhibition of cell growth incubated for 96 hrs by MTT based ELISA; assay type: functional; conditions: NCI-H1975, 96 h
[14] = Toxicity in Kunming mouse assessed as change in organ coefficient of liver at 100 mg/kg,po administration for 2 weeks; assay type: organism-based; conditions: in vivo, 336 h
[15] = test system: NCI-H446; assay: Antiproliferative activity against human NCI-H446 cells assessed as inhibition of cell growth incubated for 96 hrs by MTT based ELISA; assay type: functional; conditions: NCI-H446, 96 h
[16] = Toxicity in Kunming mouse assessed as change in serum ALT level at 100 mg/kg,po administration for 2 weeks; assay type: organism-based; conditions: in vivo, 336 h
[17] = target: DNA topoisomerase 2-alpha (Homo sapiens) (UniProt P11388); assay: Inhibition of Topoisomerase 2 (unknown origin) using pBR322 DNA as substrate at 10 uM incubated for 15 mins by EtBr staining based agarose gel electrophoresis method
Sequence of DNA topoisomerase 2-alpha (Homo sapiens) (P11388 whole entry): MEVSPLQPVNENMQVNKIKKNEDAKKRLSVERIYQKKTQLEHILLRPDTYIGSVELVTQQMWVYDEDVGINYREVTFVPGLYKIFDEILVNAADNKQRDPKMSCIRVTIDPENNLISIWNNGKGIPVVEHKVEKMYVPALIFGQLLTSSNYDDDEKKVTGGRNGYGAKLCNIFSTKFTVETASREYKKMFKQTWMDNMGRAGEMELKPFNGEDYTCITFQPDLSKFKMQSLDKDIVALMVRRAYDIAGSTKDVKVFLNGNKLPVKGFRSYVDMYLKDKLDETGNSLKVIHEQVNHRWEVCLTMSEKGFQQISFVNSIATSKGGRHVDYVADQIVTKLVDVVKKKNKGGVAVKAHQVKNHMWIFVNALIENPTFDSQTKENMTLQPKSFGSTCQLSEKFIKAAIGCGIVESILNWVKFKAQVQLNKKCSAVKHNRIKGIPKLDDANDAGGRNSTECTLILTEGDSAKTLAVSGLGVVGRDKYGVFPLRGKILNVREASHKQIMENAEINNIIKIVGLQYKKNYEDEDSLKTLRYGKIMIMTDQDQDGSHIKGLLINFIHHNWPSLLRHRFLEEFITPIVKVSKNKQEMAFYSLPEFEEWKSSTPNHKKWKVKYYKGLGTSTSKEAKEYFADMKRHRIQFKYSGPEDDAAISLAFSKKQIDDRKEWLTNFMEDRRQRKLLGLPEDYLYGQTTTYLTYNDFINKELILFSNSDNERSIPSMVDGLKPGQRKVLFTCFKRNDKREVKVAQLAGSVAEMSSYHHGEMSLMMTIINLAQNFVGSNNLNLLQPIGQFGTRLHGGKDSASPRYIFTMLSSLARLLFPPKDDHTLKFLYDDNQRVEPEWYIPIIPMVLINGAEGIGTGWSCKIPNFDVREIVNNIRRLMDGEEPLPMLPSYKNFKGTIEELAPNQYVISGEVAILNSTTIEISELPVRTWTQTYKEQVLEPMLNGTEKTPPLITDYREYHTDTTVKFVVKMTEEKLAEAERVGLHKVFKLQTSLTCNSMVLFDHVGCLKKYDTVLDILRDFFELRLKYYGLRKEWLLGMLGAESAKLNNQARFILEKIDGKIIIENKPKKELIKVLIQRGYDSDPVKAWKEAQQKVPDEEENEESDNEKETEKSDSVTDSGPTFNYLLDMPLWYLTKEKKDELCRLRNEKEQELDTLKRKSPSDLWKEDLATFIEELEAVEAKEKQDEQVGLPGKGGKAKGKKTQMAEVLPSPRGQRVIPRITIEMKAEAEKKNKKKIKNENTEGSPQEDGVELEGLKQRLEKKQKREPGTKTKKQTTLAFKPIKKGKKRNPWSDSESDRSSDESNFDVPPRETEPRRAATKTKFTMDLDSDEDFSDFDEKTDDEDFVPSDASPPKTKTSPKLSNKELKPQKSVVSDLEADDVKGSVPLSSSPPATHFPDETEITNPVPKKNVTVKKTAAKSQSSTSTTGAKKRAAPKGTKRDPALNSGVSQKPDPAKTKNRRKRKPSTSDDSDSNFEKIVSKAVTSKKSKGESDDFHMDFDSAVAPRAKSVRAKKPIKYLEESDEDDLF

[18] = test system: NCI-H446; assay: Induction of apoptosis in human NCI-H446 cells at 8 uM incubated for 48 hrs by Annexin V-FITC/PI staining based flow cytometry relative to control; assay type: functional
[19] = AUC (0 to infinity) in ICR mouse at 10 mg/kg,po measured upto 24 hrs by LC-MS/MS analysis; assay type: ADME, organism-based; conditions: in vivo
[20] = test system: DU-145; assay: Antiproliferative activity against human DU-145 cells assessed as inhibition of cell growth incubated for 96 hrs by MTT based ELISA; assay type: functional; conditions: DU-145, 96 h
[21] = Half life in ICR mouse at 10 mg/kg,po measured upto 24 hrs by LC-MS/MS analysis; assay type: ADME, organism-based; conditions: in vivo
[22] = target: T1, DNA topoisomerase 1 (Homo sapiens) (UniProt P11387); assay: Inhibition of Topoisomerase I (unknown origin) using pBR322 DNA as substrate at 10 uM incubated for 15 mins by EtBr staining based agarose gel electrophoresis method
T1 sequence (whole entry): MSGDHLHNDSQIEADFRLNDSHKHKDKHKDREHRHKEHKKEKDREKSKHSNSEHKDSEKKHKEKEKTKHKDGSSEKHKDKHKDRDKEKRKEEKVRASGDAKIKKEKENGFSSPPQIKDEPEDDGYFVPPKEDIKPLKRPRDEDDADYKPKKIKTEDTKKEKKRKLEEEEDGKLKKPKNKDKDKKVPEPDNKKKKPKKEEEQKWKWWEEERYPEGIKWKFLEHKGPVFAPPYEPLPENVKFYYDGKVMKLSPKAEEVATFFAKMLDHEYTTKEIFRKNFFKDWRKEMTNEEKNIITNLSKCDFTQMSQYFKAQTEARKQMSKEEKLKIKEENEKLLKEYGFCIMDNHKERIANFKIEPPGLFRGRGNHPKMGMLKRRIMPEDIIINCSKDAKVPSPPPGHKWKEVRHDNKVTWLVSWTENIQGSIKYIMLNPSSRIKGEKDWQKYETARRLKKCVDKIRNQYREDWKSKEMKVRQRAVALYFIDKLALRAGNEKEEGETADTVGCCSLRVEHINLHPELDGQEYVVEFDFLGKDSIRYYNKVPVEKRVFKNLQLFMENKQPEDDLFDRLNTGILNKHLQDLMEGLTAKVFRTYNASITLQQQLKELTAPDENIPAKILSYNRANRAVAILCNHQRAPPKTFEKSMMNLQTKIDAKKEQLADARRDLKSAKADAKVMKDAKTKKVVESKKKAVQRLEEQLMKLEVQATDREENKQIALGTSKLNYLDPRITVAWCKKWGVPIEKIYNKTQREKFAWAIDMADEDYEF

[23] = Toxicity in Kunming mouse assessed as change in organ coefficient of heart at 100 mg/kg,po administration for 2 weeks; assay type: organism-based; conditions: in vivo, 336 h
[24] = test system: NCI-H446; assay: Induction of cell cycle arrest in human NCI-H446 cells assessed as accumulation of cells at G2/M phase at 1 to 2 uM incubated for 48 hrs by propidium iodide/RNase A staining based flow cytometry; assay type: functional; conditions: dose 1-2 µM
[25] = target: T1, DNA topoisomerase 1 (Homo sapiens); assay: Inhibition of Topoisomerase I (unknown origin) using pBR322 DNA as substrate at 2 uM incubated for 15 mins by EtBr staining based agarose gel electrophoresis method
[26] = target: T1, DNA topoisomerase 1 (Homo sapiens); assay: Inhibition of Topoisomerase I (unknown origin) using pBR322 DNA as substrate at 5 uM incubated for 15 mins by EtBr staining based agarose gel electrophoresis method
[27] = test system: HCT-116; assay: Antitumor activity against human HCT-116 cells xenografted with BALB/c mouse assessed as tumor growth inhibition by measuring T/C ratio at 50 mg/kg,po administrated once daily for 21 days; assay type: functional; conditions: time 21 day
[28] = target: T1, DNA topoisomerase 1 (Homo sapiens); assay: Inhibition of Topoisomerase I (unknown origin) using pBR322 DNA as substrate at 1 uM incubated for 15 mins by EtBr staining based agarose gel electrophoresis method
[29] = test system: NCI-H446; assay: Antitumor activity against human NCI-H446 cells xenografted with BALB/c mouse assessed as tumor growth inhibition at 100 mg/kg,po administrated once daily for 21 days relative to control; assay type: functional; conditions: NCI-H446, 504 h, time 21 day, read-out: TGI
[30] = test system: HCT-116; assay: Antitumor activity against human HCT-116 cells xenografted with BALB/c mouse assessed as tumor growth inhibition by measuring T/C ratio at 100 mg/kg,po administrated once daily for 21 days; assay type: functional; conditions: time 21 day

Structure (SMILES)	Activity [1]	IC50 [2]	Activity [3]	Activity [4]	Activity [5]	Activity [6]	inhibition at 2 µM [7]	Activity [8]	MRT last at 24 h [9]	IC50 at 96 h [10]	MRT inf [11]	IC50 [12]	IC50 [13]	Activity [14]	IC50 [15]	Activity [16]	inhibition [17]	Activity [18]	AUC(0-inf) [19]	IC50 [20]	further results
COc1ccc2c(c1)c1ncc3ccccc3c1n2CCCC(=O)NO	Active	1260 nM	Non-Toxic	Non-Toxic	60.3%	Non-Toxic	> 90%	Non-Toxic	1.35 h	> 10000 nM	1.72 h	2510 nM	960 nM	Non-Toxic	120 nM	Non-Toxic	Active	77.5%	267 ng·h/mL	860 nM	half-life [21]: 1.15 h; inhibition [22]: Active; Activity [23]: Non-Toxic; Activity [24]: Active
CN(C)CCCn1c2cc3c(cc2c2ncc4ccccc4c21)OCO3	Active	760 nM	Non-Toxic	Non-Toxic	61.1%	Non-Toxic	> 90%	Non-Toxic	5 h	9570 nM	5 h	1100 nM	740 nM	Non-Toxic	90 nM	Non-Toxic	Active	95.3%	2040 ng·h/mL	520 nM	inhibition [25]: Active; inhibition [26]: Active; T/C [27]: 55%; inhibition [28]: Active; inhibition in vivo at 100 mg/kg [29]: 66.1%; half-life [21]: 1.66 h; inhibition [22]: Active; Activity [23]: Non-Toxic; T/C [30]: 18%; Activity [24]: Active
